Results taken from patent publication US11026910B2, “α- and γ-truxillic acid derivatives and pharmaceutical compositions thereof” (The Research Foundation for The State University of New York, priority 2012, dated 2021).

What was measured:
[1] = literature; cited from earlier work
FABP7 = FABP7 (Homo sapiens, UniProt O15540); conditions: natural substrate; read-out: Ki against FABP7; cited from earlier work
male C57Bl6 mice [2] = conditions: literature SAR study (Chi 2005); cited from earlier work
FABP5 [3] = molecular target: T1, FABP5 (Homo sapiens, UniProt Q01469); experiment: High throughput fluorescence displacement assay with NBD-stearate; assay type: binding; conditions: stated in words only
T1 construct: made in house
Procedure: FABP5 (30 μg), NBD-stearate (1 μM), and a competitor test compound were incubated in 30 mM Tris-HCl, 100 mM NaCl buffer (pH 7.6). […] The initial assay was run with buffer (30 mM Tris-HCl buffer), negative controls (buffer and NBD-stearate), positive controls (buffer, NBD-stearate, FABP5), and experimental wells with a variable test compound added (arachidonic acid or one of the 48 test compounds) at 10 μM. […] The Kd of NBD-stearate for FABP5 had been determined previously through incubating FABP5 with increasing concentrations of NBD-stearate.

male C57Bl6 mice [4] = experiment: Formalin test; assay type: in vivo
Procedure: (§1) We used male C57Bl6 mice (22-30 g, Taconic Farms) for all experiments. The animals were group housed at room temperature and kept on a 12:12 hour light:dark cycle with ad libitum access to water and food. The animals were habituated to the experimental room for one week before testing. All experiments were approved by the Stony Brook University Institutional Animal Care and Use Committee. The experimenter was blinded to the treatment conditions of each animal.
Mice were habituated to the observation chamber (Plexiglas box, 25 cm×25 cm×25 cm) for 30 min prior to formalin injection. The mice subsequently received an injection of formalin (2.5% in saline, 20 μl) into the plantar surface of the right hind paw using a 27 gauge needle. The animals were immediately placed back into the observation, chamber and nocifensive behavior (time spent licking or biting the paw) was recorded for 60 min. The formalin test consists of two phases with the first phase (0-5 min) reflecting nociceptor activation and the second phase (15-45 min) reflecting an inflammatory pain response.
(§2) Behavioral data are presented as means±S.E.M. for the vehicle and inhibitor-treated groups, each consisting of at least 6 animals. Statistical significance between vehicle and inhibitor groups was determined using unpaired t-tests or one-way ANOVA followed by Dunnett's post hoc analysis. In all cases, differences of p<0.05 were considered significant.

male C57Bl6 mice [5] = experiment: Carrageenan-induced paw edema and thermal hyperalgesia; assay type: in vivo; conditions: 20 mg/kg, i.p. (FIG. 16A)
Procedure: as §1
Paw edema was induced by injecting 1% λ-carrageenan (20 μl, in sterile saline) into the plantar surface of the left hind paw and a control solution of saline into the right hind paw using a 27 gauge needle. Paw diameters were measured before carrageenan injection and 4 hours after injection using digital electronic calipers (Fisher) and expressed to the nearest ±0.01 mm. […] The cannabinoid receptor antagonists, rimonabant and SR144528 (3 mg/kg, i.p.), in ethanol:emulphor:saline (1:1:18), were injected 15 min before the FABP inhibitor. Edema is reported as the change in paw diameter at 4 hr over the baseline. Changes in paw diameter of saline-injected contralateral paws were negligible. Thermal hyperalgesia measured the latency to withdraw the paw from a focused beam of radiant heat applied to the plantar surface of the hind paw using a Hargreaves plantar apparatus (Ugo Basile) set at an intensity of 3.0. For each mouse, the average latencies consisted of three trials spaced at least 5 minutes apart. The mice were habituated to the test chamber for 30 min. The cutoff time was set at 30 sec.
as §2

FABP5 [6] = molecular target: T1, FABP5; conditions: cited from earlier work
FABP4 = FABP4 (Homo sapiens, UniProt P15090); conditions: McDonnell 2006; read-out: Ki against FABP4 (1,8-ANS displacement); cited from earlier work
Sequence of FABP4 (P15090 whole entry, species assumed): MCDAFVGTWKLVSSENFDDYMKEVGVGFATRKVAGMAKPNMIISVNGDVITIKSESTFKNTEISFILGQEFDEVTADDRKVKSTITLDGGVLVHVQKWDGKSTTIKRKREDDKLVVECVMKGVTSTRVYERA

T1 sequence (Q01469 whole entry, species assumed): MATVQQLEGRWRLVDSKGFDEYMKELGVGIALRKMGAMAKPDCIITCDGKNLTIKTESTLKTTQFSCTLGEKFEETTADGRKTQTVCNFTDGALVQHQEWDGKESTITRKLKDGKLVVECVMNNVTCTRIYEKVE
Sequence of FABP7 (O15540 whole entry, species assumed): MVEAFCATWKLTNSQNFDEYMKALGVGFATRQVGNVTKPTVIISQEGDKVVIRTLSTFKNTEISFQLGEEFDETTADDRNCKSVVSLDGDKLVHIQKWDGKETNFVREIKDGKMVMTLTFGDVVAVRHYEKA

## COc1cc([C@H]2[C@H](C(=O)O[C@@H]3C[C@@H]4[C@@H](CN(C)C[C@@H]4C)[C@@H]3C)[C@H](c3ccc(O)c(OC)c3)[C@H]2C(=O)O[C@@H]2C[C@@H]3[C@@H](CN(C)C[C@@H]3C)[C@@H]2C)ccc1O [(−)-incarvillateine]
[1]
  antinociceptive properties: antinociceptive properties on the same level as morphine

## CCCCCCCC/C=C\CCCCCCCC(=O)O [oleic acid]
FABP7
  Ki: 350 nM

## O=C(O)C1C(c2ccccc2)C(C(=O)O)C1c1ccccc1 (stereo not drawn) [α-truxillic acid, α-2,4-diphenyl-cyclobutane-1,3-dicarboxylic Acid]
Male C57Bl6 mice [2]
  antinociception in early and late stage pain, formalin induced mouse models: best antinociceptive agent in both early and late stage pain

## O=C(O)[C@H]1[C@H](c2ccccc2)[C@H](C(=O)Nc2cccc3ccccc23)[C@H]1c1ccccc1 (stereo in doubt) [Compound 53, 3-(naphthalen-1-ylcarbamoyl)-2,4-diphenylcyclobutanecarboxylic Acid]
FABP5 [3]
  FABP inhibition activity: analogous FABP inhibition activity to Compound 26

## O=C(O)[C@H]1[C@H](c2ccccc2)[C@H](C(=O)Oc2ccc3ccccc3c2)[C@H]1c1ccccc1 (stereo in doubt) [Compound 54, 3-((naphthalen-2-yloxy)carbonyl)-2,4-diphenylcyclobutanecarboxylic Acid]
FABP5 [3]
  FABP inhibition activity: analogous FABP inhibition activity to Compound 26
Male C57Bl6 mice [4]; FIG. 16B
  first phase of formalin-induced nociception: reduce
  second phase of formalin-induced nociception: reduce
Male C57Bl6 mice [5]
  carrageenan-induced paw edema, 24 hrs after inhibitor administration: reduced
  carrageenan-induced thermal hyperalgesia, 24 hrs after inhibitor administration: reduced

## CCCCCCC(CCCCCCCCCCC(=O)O)N(C)c1ccc([N+](=O)[O-])c2nonc12 (stereo not shown) [NBD-stearate, 12-N-methyl-(7-nitrobenz-2-oxa-1,3-diazo) aminostearic acid]
FABP5 [6]; one site binding analysis, determined previously (Kaczocha 2012), read-out: Kd of NBD-stearate for FABP5
  Kd: 160 nM

## O=C(O)C1C(c2ccccc2)C(C(=O)Oc2cccc3ccccc23)C1c1ccccc1 (stereo not shown) [Compound 49, γ-2,4-diphenyl-cyclobutane-1,3-dicarboxylic Acid mono-(1-napthyl) Ester]
Male C57Bl6 mice [4]; mouse, in vivo
  results in formalin induced mice models: excellent results

## O=C(O)[C@@H](O)c1cccc(OCc2ccccc2Cl)c1OCc1ccccc1Cl [BMS480404]
FABP4
  Ki: 2.5 nM

## CCCCC/C=C\C/C=C\C/C=C\C/C=C\CCCC(=O)O [arachidonic acid]
FABP5 [6]; published value, read-out: Ki against FABP5, published / previously determined
  Ki: 130 nM
